Results as given in patent US11485714B2, “Hydroxyethylamine-based piperazine compounds, and methods of producing and using the same for treating disease” (National Institute of Immunology, priority 2020, dated 2022).
Where two headings read alike, the source gives them in different places.

Columns and labels:
[1] = In vitro cytotoxicity, HEK293 (Alamar Blue); type: cell-based; conditions: human, HEK293 cells; read-out: CC50 (50% cell toxicity)
Description: (§1) In addition, the cell viability of Huh 7 and HEK293 cells was evaluated post drug exposure using the Alamar Blue assay [Riss, Terry L., et al. “Cell viability assays.” Assay Guidance Manual [Intenet]. Eli Lilly & Company and the National Centre for Advancing Translational Sciences, 2016]. Cells ([…]) were exposed to varying concentrations of test compounds, for 24 hours in 96-well plate format along with 10/100 μL Alamar Blue solution (10×=4.8 mM in phosphate buffer) per well. […] Results from the cytotoxicity assays were expressed as CC50 at which 50% of the cells died/metabolically slowed down due to drug exposure compared to the non-treated and vehicular control.
(§2) The cytotoxicity of Compound I was tested by exposing peripheral blood mononuclear cells (PBMCs) to drug concentrations corresponding to averages of both Pf3D7 and PfDd2 IC50 values. This was intended to establish whether the observed antiparasitic effects of the compounds were due to non-specific inhibitory activity. […] The IC50 required for killing the parasite is <90 nM. Therefore, in order to be toxic for human cells we have to use over 650 fold concentration.

[2] = system: peripheral blood mononuclear cells (PBMCs); assay: In vitro cytotoxicity, PBMC (MTT, Cell Titer Glo); type: cell-based, human
Description: (§3) [6] PBMC were isolated from healthy donors using the Ficoll-Paque™ technique (GE Healthcare Bioscience AB, Uppsala, Sweden) from donor leukopack samples obtained from LUMC blood bank services. […] Robust cells at a concentration of 80,000 cells/ml were plated into 96-well plates and incubated for 24 hours. Cell viability and proliferation was determined by use of both MTT and Cell Titer Glo@ assays for both cell types. MTT assay was conducted by addition of 10 μL MTT solution (5 mg/mL) into each well, incubated for 4 hour at 37° C. followed by addition of 50 μL DMSO to dissolve the formazan precipitate according to the manufacturer's protocol. Aliquots were drawn from each well and color intensity was measured spectrophotometrically in SpectraMax® M5 Multi-Mode Microplate Reader.
as §2

[3] = In vitro cytotoxicity, PBMC (MTT, Cell Titer Glo); type: cell-based, human; conditions: human; PBMCs; read-out: CC50 (50% cell toxicity)
Description: as §3, §2

[4] = system: L. donavani infected THP1 cells; assay: Calcium levels in L. donavani infected THP1 cells (Fluo4-AM); type: cell-based, Leishmania donovani; conditions: 10 μM, within few seconds, preliminary
Description: A macrophage differentiated cell culture of THP1 cell lines by phorbol 12-myristate 13-acetate (PMA) concentration of 15 ng/ml was established on 15 mm glass bottom petri dishes. The confluent cells were infected with leishmania promastigotes in 1:5 ratio. The infected macrophages were washed after 24 hr.
Incubation was conducted to remove uninfecting promastigotes with same RPMI medium with 6% FCS. The culture was then washed twice in HEPES-buffered saline solution (HBSS) (in mM: 25 HEPES, 121 NaCl, 5 NaHCO3, 4.7 KCl, 1.2 KH2PO4, 1.2 MgSO4, 2.0 CaCl2), 10 glucose, 0.04 probenecid, and 0.25% (w/v) fatty acid-free BSA, pH 7.4). The culture was switched to the same buffer with Fluo4-AM (1×), Hoechst 33258 (1×) and charged for 40 minutes. The cells were then washed in same buffer without dye and mounted on the stage of inverted LSM 510 Zeiss, […], 1.4 NA, oil-immersion objective, zoom 4-6, z-stacks of […] thin optical sections, 4-8× average, 2,000×2,000 pixel window, range indicator used for optimized illumination, and 488, 543, 633 laser lines used for excitation. Compounds Miltefosine, Amphotericin B, calxinin and DMSO were added during time-course experiments. Preliminary results of Amastigotes treated with DMSO (negative control) and treated Compound 1 (10 μM) were generated.

[5] = In vitro cytotoxicity, Huh 7.1 (Alamar Blue); type: cell-based; conditions: human, Huh 7.1 cells; read-out: CC50 (50% cell toxicity)
Description: as §1, §2

[6] = system: Leishmania donovani amastigotes; assay: Anti-leishmania activity, amastigotes in THP-1 macrophages; type: cell-based; conditions: 96 hours, read-out: IC50, L. donovani amastigotes in THP-1 macrophages
Description: To test the anti-leishmania activity, Leishmania donovani strains: L. donovani reporter expressing red fluorescent protein, DsRed2 transgenic L. donovani (LV82)15, obtained from Ohio State University. Columbus (OSUMC). Extracellular (Promastigotes) L. donovani parasites were maintained in M199 media supplemented with 15% heat-inactivated fetal bovine serum (HI-FBS), 20 mM HEPES, 100 U/ml of penicillin and streptomycin at pH 5.5 with 5% CO2. Cultures were constantly maintained in a 25° C. incubator. Anti-leishmanial activity was determined by incubating exponentially growing log-phase promastigotes with THP-1 macrophage for 24 h to infect. Following this, plates were washed to remove the uninfected promastigotes, STD drug and Calxinin were treated 96-well plates for 96 hours. Miltefosine and paromomycin, standard medications, serve as a positive control at equivalent concentrations. Morphological alterations in the amastigotes following treatment with drugs, were examined by fluorescent microscopy. Images were analyzed for percent parasite survival upon drug treatment and enumerated the IC50. The inhibition curve of Compound I was very similar to Amphotericin B (AmpB) and lower than the 2 standard drugs.

[7] = system: Field isolates from Kenya (P. falciparum infected blood); assay: Screening against freshly collected field isolates; type: cell-based; conditions: Plasmodium falciparum

With `NC(Cc1ccccc1)C(O)CN1CCN(Cc2ccc(C(F)(F)F)cc2)CC1` (stereo not drawn) [Compound I] as the compound, how does the CC50 at 24 h [1] read?
Its CC50 at 24 h is 60.2 µM.

What about the “% PBMC viability relative to vehicle control” value ([2]; 24 hours) of the same compound?
Its value is over 100%.

And the “proliferation of the PBMCs (PBMC)” value ([2]; concentration = average of Pf3D7 and PfDd2 IC50, Cell Titer-GLO)?
The value was 110.12.

What about the CC50 at 24 h [3] of the same compound?
The CC50 at 24 h was 1000 µM.

And the “calcium levels of Macrophage+L. donavani” value [4]?
Its value is “changes in the calcium levels”.

What about the CC50 at 24 h [5] of the same compound?
The CC50 at 24 h was 100 µM.

And the IC50 [6]?
The IC50 was 0.0798 µM.

What about the IC50 ([7]; read-out: Field isolates from Kenya IC50, nM (±SD)) of the same compound?
Its IC50 is 50 nM.

And the IC50 ([7]; read-out: IC50 against freshly collected field isolates of P. falciparum infected blood)?
Its IC50 is 643 nM.
